Test results as given in patent US20050256304A1, “Modified factor VIII” (priority 2002, published 2005).

What was measured:
naïve human T-cells = assay: Naïve T cell epitope map: ex vivo T-cell proliferation using PBMC from healthy donors; type: cell-based; settings: cells of a healthy non haemophiliac individual
Source text: This approach has proven to be a particularly effective method and is disclosed herein as an embodiment of the invention. The method can be applied to test part of the sequence, for example a FVIII protein lacking all or part of the B-domain; the method can be applied to selected regions of the sequence, for example a sub-set of FVIII peptides such as all or some of those listed in FIG. 1; or the method may be applied to test whole FVIII sequence. In the present studies, the method has involved the testing of overlapping FVIII-derived peptide sequences in a scheme so as to scan and test a FVIII sequence lacking the B-domain. The synthetic peptides are tested for their ability to evoke a proliferative response in human T-cell cultured in vitro. […] The stimulation index is conventionally derived by division of the proliferation score (e.g. counts per minute of radioactivity if using ^3H-thymidine incorporation) measured to the test peptide by the score measured in cells not contacted with a test peptide.
Blood from 40 healthy HLA-DR typed donors was used to isolate PBMC which were used to screen individual FVIII peptides at two concentrations (1 and 5 μM). […] MHC allotypes were detected using
PBMC contain physiological numbers of naïve T cells and antigen presenting cells. […] Cultures were harvested onto filtermats and the cpm/well was determined using a Wallac Microplate Beta counter.

[1] = tested on: T-cells derived from haemophiliac patients; assay: T-cell proliferation with FVIII specific T cell lines from haemophiliac patients; type: cell-based, human; settings: T-cells from haemophiliac blood
Source text: In a further embodiment of this approach, the inventors have provided a method whereby the FVIII sequence is scanned for the presence and location of T-cell epitopes using ex vivo biological T-cell assays where the T-cells are derived from haemophiliac patients. For a proportion of such patients the FVIII protein constitutes a foreign protein and a potent antigen in vivo. The inventors have established that it is possible to derive polyclonal and in principle mononclonal T-cell lines in vitro from the PBMC of such individuals and these lines may be used as effective reagents in the mapping of T-cell epitopes within the FVIII protein. […]
In the present case in the synthetic peptides were analysed using a system of pools each containing 8 different peptide sequences. […] These cells are stimulated with antigen (e.g. synthetic peptide or whole protein) using most preferably autologous antigen presenting cells as previously for around 4 days and the subsequent proliferative response (if any) is measured thereafter. […] In this way any individual T-cell epitope is represented in 2 separate pools and induced proliferation will be detected from treatments using both of those pools. Where a proliferative response is detected to any given peptide pool, the peptide pool is decoded repeating the assay using the individual pool members in isolation. […]

ISQFIIMYSLDGKKW [Peptide P10]
proliferation of ex vivo T-cells (naïve human T-cells): able to evoke proliferation of ex vivo T-cells
proliferation of ex vivo T-cells [1]: able to evoke proliferation of ex vivo T-cells

IARYIRLHPTHYSIRSTLRM [Peptide P11]
proliferation of ex vivo T-cells [1]: active
